Source: EP0082577A1, “Fungicidal composition and method of combating fungal growth” (SHELL INTERNATIONALE RESEARCH MAATSCHAPPIJ B.V., priority 1981, dated 1983)
Where a name gives a salt, the structure may show the parent alone.

What was measured:
Type in all cases: in vivo
Plamopara viticola = test: Grapevine leaf disc test: disease suppression; settings: alone, 7 days at 21°C
Procedure: Leaf discs of grapevine (cv. Cabernet Sauvignon) 23mm in diameter, were supported on water agar in petri dishes, and sprayed with various aqueous test preparations. After the spray had dried, the discs were inoculated with Plamopara viticola. The dishes were closed and incubated for 7 days at 21°C. At the end of this period, the percentage area of each disc covered with sporulating downy mildew was estimated, and compared with that on inoculated, untreated control discs.
In this Table, the theorectical degree of disease suppression, assuming that the two fungicides act independently (i.e. additively) is calculated using the formula: [formula] where x and y are the activities of the two components used separately. If the actual degree of disease suppression (as measured in the test) is greater than the calculated value, then the two fungicides have interacted synergistically.

Plasmopara viticola = test: Field spray test on adult fruit-bearing grapevines: disease level; settings: percentage of disease level on control vines
Procedure: (§1) The fungicidal and phytotoxic effects of the sodium salt of N-hydroxy-N-formylalanine in admixture with N-(trichlormethyl- thio)phthalimide were compared to those of the N-hydroxy-N-formylalanine salt alone using the following procedure. The test solutions were sprayed onto adult, fruit-bearing grapevines (cv Sauvignon) at 18 day intervals during June, July and August. Four replicate plots were treated. Controls were left untreated.
(§2) The test solutions contained the active ingredient(s), distilled water and 100ppm of Tween 20 surfactant (Trade mark).
Seven days after the first spray application and 13 days after the third spray application the vines were innoculated with a spore suspension containing Plasmopara viticola.
(§3) Assessments of the disease level and phytotoxicity were made 19 days after the 1st treatment, and then after a further 4 weeks (11 days after the 3rd treatment) .
The extent of disease control in the test is expressed as a percentage of the disease level occuring on the control vines.

[1] = tested on: grapevines (cv Sauvignon); test: Field spray test on adult fruit-bearing grapevines: phytotoxicity rating; settings: mean rating 0-5
Procedure: as §1, §2, §3
Phytotoxicity is expressed as a mean rating compared with the control according to the criteria, • 0 = absolutely no phytotoxicity • 1 = doubtful occurence of phytotoxicity • 2 = distinct, but very slight phytotoxicity • 3,4 = slight to moderate phytotoxicity • 5 = phytotoxicity of an unacceptable degree.

[2] = 250 ppm sodium salt alone, 11 days after 3rd application
[3] = 250 ppm sodium salt alone, 19 days after 1st application
[4] = 500 ppm sodium salt alone, 11 days after 3rd application
[5] = 500 ppm sodium salt alone, 19 days after 1st application

Row | Compound | Disease Suppression (% of control) Actual (Plamopara viticola; 1 ppm in spray) | Disease Suppression (% of control) Actual (Plamopara viticola; 5 ppm in spray) | Disease Suppression (% of control) Actual (Plamopara viticola; 10 ppm in spray) | DISEASE (Plasmopara viticola; [2]) | DISEASE (Plasmopara viticola; [3]) | DISEASE (Plasmopara viticola; [4]) | DISEASE (Plasmopara viticola; [5]) | PHYTOTOXICITY [1, 2] | PHYTOTOXICITY [1, 3] | PHYTOTOXICITY [1, 4] | PHYTOTOXICITY [1, 5] | Disease Suppression (% of control) Actual (Plamopara viticola; 7.5 ppm in spray) | Disease Suppression (% of control) Actual (Plamopara viticola; 15.0 ppm in spray) | Disease Suppression (% of control) Actual (Plamopara viticola; 30.0 ppm in spray)
1 | O=C1c2ccccc2C(=O)N1SC(Cl)(Cl)Cl [N-(trichloromethylthio) phthalimide, N-(trichloromethylthio)phthalimide, reference compound] | -16.2 % of control | -2.7 % of control | 82.4 % of control |  |  |  |  |  |  |  |  |  |  | 
2 | CC(C(=O)O)N(O)C=O (centres unmarked) [sodium salt of N-hydroxy-N-formylalanine] |  |  |  | 26.8% | 34.7% | 14.4% | 17.6% | 0.8 | 0.5 | 1.5 | 2.0 | -8.1 % of control | -2.7 % of control | 37.8 % of control
